# Results as given in publication PMC5046821 (Biochemistry, 2016).
# Molecular target: Irp3 (Yersinia enterocolitica, UniProt O54512)
# Test: X-ray crystallography, […] Å, cocrystal
# Type: binding
# Details: with NADP+; pH 7.3; active site, substrate analogue, occupancy 70-85%
smiles,measurement,value
"O=C(O)[C@@H]1CSC(c2csc(-c3ccccc3O)n2)=N1 [HPTT-COOH, 2′-(2-Hydroxyphenyl)-4,5-dihydro[2,4′-bisthiazole]-4-carboxylic Acid]","X-ray crystallography, 1.28 Å, cocrystal",A holo-Irp3 structure was determined with both HPTT-COOH and NADP^+ bound.
